Measured values: patent publication US12173018B2, “Penicillin-binding protein inhibitors” (priority 2018, dated 2024)

Assays:
K. pneumoniae 848844 = assay: microbe, parasite or virus in culture; format: cell-based, Klebsiella pneumoniae; conditions: Klebsiella pneumoniae; K. pneumoniae 848844 producing SHV-11 and KPC-2; read-out: MIC K. pneumoniae 848844
Procedure, shortened: (§1)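 Strains are tested by standard CLSI broth microdilution. Log-phase cells, diluted by OD600 to 5×10^5 CFU/mL, meet 2-fold compound series and incubate 16-20 hours at 37° C before the lowest growth-free concentration is recorded.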

P. aeruginosa ATCC 27853 = assay: Broth microdilution MIC, P. aeruginosa ATCC 27853; format: cell-based; conditions: Pseudomonas aeruginosa, ATCC27853, read-out: MIC P. aeruginosa ATCC 27853
Description: To determine the ability of test compounds to potentiate the inhibition of the growth of bacterial strains, classic cell based broth microdilution minimum inhibitory concentration (MIC) assays were employed. MIC assays are performed according to CLSI methods except where otherwise noted (CLSI, 2011 and CLSI, 2009). The reference type strain E. coli ATCC 25922, the wild-type parent strain E. coli AG100, the hyper-permeable E. coli 901C and E. coli D22 and the E. coli AG100A strain lacking the acrAB efflux pump encoding genes were used to determine the ability of the PBP inhibitors to penetrate the outer membrane of gram-negative bacteria and inhibit bacterial growth. […] The P. aeruginosa PAO1, P. aeruginosa ATCC 27853 and A. baumannii ATCC 19606, along with the hyper-permeable P. aeruginosa ATCC 35151 and an engineered efflux pump-compromised strain of P. aeruginosa (ΔmexAB-oprM) were used to determine the ability of PBP inhibitors to penetrate the outer membrane of P. aeruginosa and A. baumannii and assess antibacterial activity against these important gram-negative organisms.
Briefly, cryo-preserved bacterial cultures of challenge strains are streaked for isolation on appropriate agar medium, in this case Mueller Hinton II agar. Following incubation to allow growth of the colonies, plates are sealed with parafilm and stored refrigerated for up to two weeks. For preparation of assay inoculum and to ensure low variability, at least 5 colonies are picked from the agar plates with an inoculating loop and aseptically transferred to a culture tube containing 3 mL of Mueller-Hinton Broth (supplemented with divalent cations to required levels based on Manufacturers' certification). The broth culture is grown for 3-5 hours at 37° C. with shaking at 200 rpm. Meanwhile, 2-fold serial dilutions of test compounds are conducted in a 96 well plate with a final volume of 75 μL per well at 2-fold the final desired concentration. After the dilution plates are set up the growing cultures are then diluted in a cuvette containing MH II broth and the optical density is measured at 600 nm. The Inoculum is diluted such that 75 μL of this culture in Mueller-Hinton Broth results in a starting bacterial concentration of 5×10^5 CFU/mL when added to the dilution plates. The plates are incubated for 16-20 hours at 37° C. The MIC values are read visually as the lowest concentration well with no bacterial growth.

E. coli AG100 = assay: Broth microdilution MIC, E. coli AG100 (wild-type parent); format: cell-based; conditions: Escherichia coli; wild-type parent E. coli AG100, broth microdilution; read-out: MIC E. coli AG100
Procedure, shortened: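 Starting inoculum of 5×10^5 CFU/mL, from colonies grown 3-5 h in Mueller-Hinton broth with divalent cations, added to two-fold compound dilution series.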

E. coli ATCC 25922 = assay: Broth microdilution MIC, E. coli ATCC 25922; format: cell-based; conditions: Escherichia coli, ATCC25922, read-out: MIC E. coli 25922
Procedure, shortened: as §1

K. pneumoniae UMM = assay: microbe, parasite or virus in culture; format: cell-based; conditions: Klebsiella pneumoniae; K. pneumoniae UMM producing SHV-5 and KPC-2; read-out: MIC K. pneumoniae UMM
Procedure, shortened: as §1

P. aeruginosa ATCC 35151 = assay: microbe, parasite or virus in culture; format: cell-based; conditions: Pseudomonas aeruginosa, ATCC35151; hyper-permeable P. aeruginosa ATCC 35151; read-out: MIC P. aeruginosa ATCC 35151
Procedure, shortened: as §1

[1] = tested on: P. aeruginosa (ΔmexAB-oprM); assay: microbe, parasite or virus in culture; format: cell-based; conditions: Pseudomonas aeruginosa, read-out: MIC P. aeruginosa ΔmexAB-OprM
Procedure, shortened: as §1

E. coli D22 = assay: microbe, parasite or virus in culture; format: cell-based; conditions: Escherichia coli; hyper-permeable E. coli D22, broth microdilution; read-out: MIC E. coli D22
Procedure, shortened: as §1

E. coli 901C = assay: microbe, parasite or virus in culture; format: cell-based; conditions: Escherichia coli; hyper-permeable E. coli 901C, broth microdilution; read-out: MIC E. coli 901C
Procedure, shortened: as §1

K. pneumoniae SI-117 = assay: microbe, parasite or virus in culture; format: cell-based; conditions: Klebsiella pneumoniae, SI117, read-out: MIC K. pneumoniae SI-117
Procedure, shortened: as §1

E. coli AG100A = assay: microbe, parasite or virus in culture; format: cell-based; conditions: Escherichia coli, read-out: MIC E. coli AG100A
Procedure, shortened: as §1

A. baumannii ATCC 19606 = assay: Broth microdilution MIC, A. baumannii ATCC 19606; format: cell-based; conditions: Acinetobacter baumannii, ATCC19606, read-out: MIC A. baumannii ATCC 19606
Procedure, shortened: as §1

Compound | MIC (K. pneumoniae 848844) | MIC (P. aeruginosa ATCC 27853) | MIC (E. coli AG100) | MIC (E. coli ATCC 25922) | MIC (K. pneumoniae UMM) | MIC (P. aeruginosa ATCC 35151) | MIC [1] | MIC (E. coli D22) | MIC (E. coli 901C) | MIC (K. pneumoniae SI-117) | MIC (E. coli AG100A) | MIC (A. baumannii ATCC 19606)
CNCCN1CCN(C(=O)N[C@@H](C(=O)N[C@H]2Cc3ccc(F)c(C(=O)O)c3OB2O)c2ccc(O)c(O)c2Cl)C(=O)C1=O [Example 242, (R)-3-((R)-2-(2-chloro-3,4-dihydroxyphenyl)-2-(4-(2-(methylamino)ethyl)-2,3-dioxopiperazine-1-carboxamido)acetamido)-7-fluoro-2-hydroxy-3,4-dihydro-2H-benzo[e][1,2]oxaborinine-8-carboxylic acid] | 0.5 to 1 µg/mL | 0.5 to 1 µg/mL | 0.5 to 1 µg/mL | 8 to 16 µg/mL | 0.5 to 1 µg/mL | < 0.25 µg/mL | < 0.25 µg/mL | 0.5 to 1 µg/mL | 0.5 to 1 µg/mL | 2 to 4 µg/mL | 0.5 to 1 µg/mL | 0.5 to 1 µg/mL
CC(=O)NCCN1CCN(C(=O)NC(C(=O)N[C@H]2Cc3ccc(F)c(C(=O)O)c3OB2O)c2ccc(O)c(O)c2Cl)C(=O)C1=O (stereo partly drawn) [Example 243, (3R)-3-(2-(4-(2-acetamidoethyl)-2,3-dioxopiperazine-1-carboxamido)-2-(2-chloro-3,4-dihydroxyphenyl)acetamido)-7-fluoro-2-hydroxy-3,4-dihydro-2H-benzo[e][1,2]oxaborinine-8-carboxylic acid] | 2 to 4 µg/mL | < 0.25 µg/mL | 2 to 4 µg/mL | 8 to 16 µg/mL | 2 to 4 µg/mL | < 0.25 µg/mL | < 0.25 µg/mL | 2 to 4 µg/mL | 0.5 to 1 µg/mL | 2 to 4 µg/mL | 0.5 to 1 µg/mL | 0.5 to 1 µg/mL
NS(=O)(=O)NCCN1CCN(C(=O)NC(C(=O)N[C@H]2Cc3ccc(F)c(C(=O)O)c3OB2O)c2ccc(O)c(O)c2Cl)C(=O)C1=O (stereo partly drawn) [Example 244, (3R)-3-(2-(2-chloro-3,4-dihydroxyphenyl)-2-(2,3-dioxo-4-(2-(sulfamoylamino)ethyl)piperazine-1-carboxamido)acetamido)-7-fluoro-2-hydroxy-3,4-dihydro-2H-benzo[e][1,2]oxaborinine-8-carboxylic acid] | 2 to 4 µg/mL | < 0.25 µg/mL | 2 to 4 µg/mL | 8 to 16 µg/mL | 0.5 to 1 µg/mL | < 0.25 µg/mL | < 0.25 µg/mL | 0.5 to 1 µg/mL | 0.5 to 1 µg/mL | 2 to 4 µg/mL | 0.5 to 1 µg/mL | < 0.25 µg/mL
CCN1CC(C)(C)N(C(=O)NC(C(=O)N[C@H]2Cc3cccc(C(=O)O)c3OB2O)c2ncc(O)cc2F)C(=O)C1=O (stereo partly drawn) [Example 245, (3R)-3-(2-(4-ethyl-2,2-dimethyl-5,6-dioxopiperazine-1-carboxamido)-2-(3-fluoro-5-hydroxypyridin-2-yl)acetamido)-2-hydroxy-3,4-dihydro-2H-benzo[e][1,2]oxaborinine-8-carboxylic acid] | > 128 µg/mL | > 128 µg/mL | > 128 µg/mL | > 128 µg/mL | > 128 µg/mL | 32 to 64 µg/mL | > 128 µg/mL | > 128 µg/mL | 8 to 16 µg/mL | > 128 µg/mL | 32 to 64 µg/mL | > 128 µg/mL
C[C@H]1CN(CCN)C(=O)C(=O)N1C(=O)NC(C(=O)N[C@H]1Cc2cccc(C(=O)O)c2OB1O)c1ccc(O)c(O)c1Cl (stereo partly drawn) [Example 248, (3R)-3-(2-((S)-4-(2-aminoethyl)-6-methyl-2,3-dioxopiperazine-1-carboxamido)-2-(2-chloro-3,4-dihydroxyphenyl)acetamido)-2-hydroxy-3,4-dihydro-2H-benzo[e][1,2]oxaborinine-8-carboxylic acid] | 2 to 4 µg/mL | 32 to 64 µg/mL | 2 to 4 µg/mL | 8 to 16 µg/mL | 2 to 4 µg/mL | < 0.25 µg/mL | < 0.25 µg/mL | 2 to 4 µg/mL | 0.5 to 1 µg/mL | 2 to 4 µg/mL | 0.5 to 1 µg/mL | 0.5 to 1 µg/mL
O=C(O)CN1CCN(C(=O)NC(C(=O)N[C@H]2Cc3cccc(C(=O)O)c3OB2O)c2ccc(O)c(O)c2Cl)C(=O)C1=O (stereo partly drawn) [Example 249, (3R)-3-(2-(4-(carboxymethyl)-2,3-dioxopiperazine-1-carboxamido)-2-(2-chloro-3,4-dihydroxyphenyl)acetamido)-2-hydroxy-3,4-dihydro-2H-benzo[e][1,2]oxaborinine-8-carboxylic acid] | 2 to 4 µg/mL | 0.5 to 1 µg/mL | 8 to 16 µg/mL | 32 to 64 µg/mL | 8 to 16 µg/mL | < 0.25 µg/mL | < 0.25 µg/mL | 8 to 16 µg/mL | 2 to 4 µg/mL | 8 to 16 µg/mL | 8 to 16 µg/mL | 0.5 to 1 µg/mL
C[C@H]1CN(CCN)C(=O)C(=O)N1C(=O)N[C@@H](C(=O)N[C@H]1Cc2ccc(F)c(C(=O)O)c2OB1O)c1ccc(O)c(O)c1Cl [Example 250, (R)-3-((R)-2-((S)-4-(2-aminoethyl)-6-methyl-2,3-dioxopiperazine-1-carboxamido)-2-(2-chloro-3,4-dihydroxyphenyl)acetamido)-7-fluoro-2-hydroxy-3,4-dihydro-2H-benzo[e][1,2]oxaborinine-8-carboxylic acid] | 0.5 to 1 µg/mL | 0.5 to 1 µg/mL | 0.5 to 1 µg/mL | 2 to 4 µg/mL | 0.5 to 1 µg/mL | < 0.25 µg/mL | < 0.25 µg/mL | 0.5 to 1 µg/mL | 0.5 to 1 µg/mL | 2 to 4 µg/mL | 0.5 to 1 µg/mL | < 0.25 µg/mL
CCN1CCN(C(=O)N[C@@H](C(=O)N[C@H]2Cc3ccc(F)c(C(=O)O)c3OB2O)c2c(F)cc(O)c(O)c2Cl)C(=O)C1=O [Example 251, (R)-3-((R)-2-(2-chloro-6-fluoro-3,4-dihydroxyphenyl)-2-(4-ethyl-2,3-dioxopiperazine-1-carboxamido)acetamido)-7-fluoro-2-hydroxy-3,4-dihydro-2H-benzo[e][1,2]oxaborinine-8-carboxylic acid] | 2 to 4 µg/mL | 0.5 to 1 µg/mL | 0.5 to 1 µg/mL | 2 to 4 µg/mL | 0.5 to 1 µg/mL | < 0.25 µg/mL | < 0.25 µg/mL | 0.5 to 1 µg/mL | 0.5 to 1 µg/mL | 2 to 4 µg/mL | 0.5 to 1 µg/mL | 0.5 to 1 µg/mL
NCCCN1CCN(C(=O)N[C@@H](C(=O)N[C@H]2Cc3cccc(C(=O)O)c3OB2O)c2ncc(O)cc2F)C(=O)C1=O [Example 252, (R)-3-((R)-2-(4-(3-aminopropyl)-2,3-dioxopiperazine-1-carboxamido)-2-(3-fluoro-5-hydroxypyridin-2-yl)acetamido)-2-hydroxy-3,4-dihydro-2H-benzo[e][1,2]oxaborinine-8-carboxylic acid] | 32 to 64 µg/mL | 32 to 64 µg/mL | 8 to 16 µg/mL | 8 to 16 µg/mL | 8 to 16 µg/mL | < 0.25 µg/mL | 8 to 16 µg/mL | 2 to 4 µg/mL | 0.5 to 1 µg/mL | 32 to 64 µg/mL | 0.5 to 1 µg/mL | > 128 µg/mL
